Measurements as given in ChEMBL document CHEMBL1201862, “PubChem BioAssay data set” (2004).
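In this assay, cells in 96-well plates receive the compound at five concentrations for 48 hours. Endpoints are linearly interpolated between the surrounding concentrations. GI50: concentration for 50% inhibition of growth.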 The source made the active and inactive calls. Rule as the data show it: active = GI50 up to about 1.1 µM and inactive = higher.

Legend:
Assay in all cases: NCI tumour cell line growth inhibition, 48 h
T47D = system: T47D
HOP-62 = system: HOP-62
NCI-H226 = system: NCI-H226
SR = system: SR
HL-60 = system: HL-60
SF-295 = system: SF-295
Malme-3M = system: Malme-3M
PC-3 = system: PC-3
HCT-15 = system: HCT-15
EKVX = system: EKVX
SNB-19 = system: SNB-19
SF-539 = system: SF-539
SK-MEL-28 = system: SK-MEL-28
SK-MEL-2 = system: SK-MEL-2
SK-OV-3 = system: SK-OV-3
HCT-116 = system: HCT-116
HOP-92 = system: HOP-92
HT-29 = system: HT-29
TK-10 = system: TK-10
SN12C = system: SN12C
KM12 = system: KM12
786-0 = system: 786-0
COLO 205 = system: COLO 205
MOLT-4 = system: MOLT-4
BT-549 = system: BT-549
M14 = system: M14
DU-145 = system: DU-145
A498 = system: A498
RPMI-8226 = system: RPMI-8226
NCI/ADR-RES = system: NCI/ADR-RES
U-251 = system: U-251
SNB-75 = system: SNB-75
ACHN = system: ACHN
A549 = system: A549
K562 = system: K562
RXF 393 = system: RXF 393
OVCAR-3 = system: OVCAR-3
NCI-H522 = system: NCI-H522
MDA-N = system: MDA-N
MDA-MB-231 = system: MDA-MB-231
OVCAR-4 = system: OVCAR-4
CAKI-1 = system: CAKI-1
MDA-MB-435 = system: MDA-MB-435
SF-268 = system: SF-268
MCF7 = system: MCF7
Hs-578T = system: Hs-578T
NCI-H23 = system: NCI-H23
NCI-H460 = system: NCI-H460
CCRF-CEM = system: CCRF-CEM
UO-31 = system: UO-31
IGROV-1 = system: IGROV-1
LOX IMVI = system: LOX IMVI
SK-MEL-5 = system: SK-MEL-5
HCC 2998 = system: HCC 2998
OVCAR-8 = system: OVCAR-8
OVCAR-5 = system: OVCAR-5
SW-620 = system: SW-620
UACC-257 = system: UACC-257
UACC-62 = system: UACC-62

O=C(/C=C/c1ccccc1)CSc1nc2ccc(I)cc2c(=O)n1Cc1ccccc1
GI50 (T47D): 9.16 µM (inactive) | GI50 (HOP-62): 14.3 µM (inactive) | GI50 (NCI-H226): 12.7 µM (inactive) | GI50 (SR): 8.81 µM (inactive) | GI50 (HL-60): 17.1 µM (inactive) | GI50 (SF-295): 14 µM (inactive) | GI50 (Malme-3M): 23.6 µM (inactive) | GI50 (PC-3): 18.3 µM (inactive) | GI50 (HCT-15): 19.5 µM | GI50 (EKVX): 7.18 µM (inactive) | GI50 (SNB-19): 42.6 µM (inactive) | GI50 (SF-539): 39.9 µM (inactive) | GI50 (SK-MEL-28): 99.5 µM (inactive) | GI50 (SK-MEL-2): 28.4 µM (inactive) | GI50 (SK-OV-3): 29.6 µM (inactive) | GI50 (HCT-116): 19.8 µM (inactive) | GI50 (HOP-92): 5.55 µM (inactive) | GI50 (HT-29): 26.3 µM (inactive) | GI50 (TK-10): 28.8 µM (inactive) | GI50 (SN12C): 9.86 µM (inactive) | GI50 (KM12): 14.5 µM (inactive) | GI50 (786-0): 14.5 µM (inactive) | GI50 (COLO 205): 17.5 µM (inactive) | GI50 (MOLT-4): 9.82 µM (inactive) | GI50 (BT-549): > 77.4 µM (inactive) | GI50 (M14): 55.1 µM (inactive) | GI50 (DU-145): 15.2 µM (inactive) | GI50 (A498): 14.3 µM (inactive) | GI50 (RPMI-8226): 13.6 µM (inactive) | GI50 (NCI/ADR-RES): 14 µM (inactive) | GI50 (U-251): 26.5 µM (inactive) | GI50 (SNB-75): 29.8 µM (inactive) | GI50 (ACHN): 7.64 µM (inactive) | GI50 (A549): 39.9 µM (inactive) | GI50 (K562): 13.9 µM (inactive) | GI50 (RXF 393): 17 µM (inactive) | GI50 (OVCAR-3): 12.4 µM (inactive) | GI50 (NCI-H522): 12.3 µM (inactive) | GI50 (MDA-N): 30.8 µM (inactive) | GI50 (MDA-MB-231): 28.9 µM (inactive) | GI50 (OVCAR-4): 21.3 µM (inactive) | GI50 (CAKI-1): 1.71 µM (inactive) | GI50 (MDA-MB-435): 38.9 µM (inactive) | GI50 (SF-268): 14.8 µM (inactive) | GI50 (MCF7): 28.6 µM (inactive) | GI50 (Hs-578T): 25.3 µM (inactive) | GI50 (NCI-H23): 18.1 µM (inactive) | GI50 (NCI-H460): 15.6 µM (inactive) | GI50 (CCRF-CEM): 11.3 µM (inactive) | GI50 (UO-31): 0.13 µM (active) | GI50 (IGROV-1): 7.26 µM (inactive) | GI50 (LOX IMVI): 37 µM (inactive) | GI50 (SK-MEL-5): 12.7 µM (inactive) | GI50 (HCC 2998): 19.3 µM (inactive) | GI50 (OVCAR-8): 25.5 µM (inactive) | GI50 (OVCAR-5): > 100 µM (inactive) | GI50 (SW-620): 38.6 µM (inactive) | GI50 (UACC-257): 19.4 µM (inactive) | GI50 (UACC-62): 35.2 µM (inactive)

COc1ccc(C2C(=O)c3ccc(OC)cc3OC2c2cccnc2)cc1 (configuration not stated)
GI50 (T47D): > 100 µM (inactive) | GI50 (HOP-62): 33.2 µM (inactive) | GI50 (NCI-H226): 44.2 µM (inactive) | GI50 (SR): > 100 µM (inactive) | GI50 (HL-60): > 100 µM (inactive) | GI50 (SF-295): 46.6 µM (inactive) | GI50 (Malme-3M): > 100 µM (inactive) | GI50 (PC-3): > 100 µM (inactive) | GI50 (HCT-15): > 100 µM | GI50 (EKVX): > 100 µM (inactive) | GI50 (SNB-19): 92.7 µM (inactive) | GI50 (SF-539): > 100 µM (inactive) | GI50 (SK-MEL-28): > 100 µM (inactive) | GI50 (SK-MEL-2): > 100 µM (inactive) | GI50 (SK-OV-3): 43.2 µM (inactive) | GI50 (HCT-116): > 100 µM (inactive) | GI50 (HOP-92): 22.5 µM (inactive) | GI50 (HT-29): > 100 µM (inactive) | GI50 (TK-10): 46.7 µM (inactive) | GI50 (SN12C): > 100 µM (inactive) | GI50 (KM12): > 100 µM (inactive) | GI50 (786-0): 83.2 µM (inactive) | GI50 (COLO 205): > 100 µM (inactive) | GI50 (MOLT-4): > 100 µM (inactive) | GI50 (BT-549): 49.9 µM (inactive) | GI50 (M14): > 100 µM (inactive) | GI50 (DU-145): > 100 µM (inactive) | GI50 (A498): > 100 µM (inactive) | GI50 (RPMI-8226): > 100 µM (inactive) | GI50 (NCI/ADR-RES): > 100 µM (inactive) | GI50 (U-251): 70.3 µM (inactive) | GI50 (SNB-75): 34.8 µM (inactive) | GI50 (ACHN): > 100 µM (inactive) | GI50 (A549): > 100 µM (inactive) | GI50 (K562): > 100 µM (inactive) | GI50 (RXF 393): 86.3 µM (inactive) | GI50 (OVCAR-3): > 100 µM (inactive) | GI50 (NCI-H522): > 100 µM (inactive) | GI50 (MDA-N): > 100 µM (inactive) | GI50 (MDA-MB-231): > 100 µM (inactive) | GI50 (OVCAR-4): > 100 µM (inactive) | GI50 (CAKI-1): > 100 µM (inactive) | GI50 (MDA-MB-435): > 100 µM (inactive) | GI50 (SF-268): 49.8 µM (inactive) | GI50 (MCF7): > 100 µM (inactive) | GI50 (Hs-578T): 45.1 µM (inactive) | GI50 (NCI-H23): > 100 µM (inactive) | GI50 (NCI-H460): > 100 µM (inactive) | GI50 (CCRF-CEM): > 100 µM (inactive) | GI50 (UO-31): > 100 µM (inactive) | GI50 (IGROV-1): > 100 µM (inactive) | GI50 (LOX IMVI): > 100 µM (inactive) | GI50 (SK-MEL-5): > 100 µM (inactive) | GI50 (HCC 2998): > 100 µM (inactive) | GI50 (OVCAR-8): 56 µM (inactive) | GI50 (OVCAR-5): > 100 µM (inactive) | GI50 (SW-620): > 100 µM (inactive) | GI50 (UACC-257): > 100 µM (inactive) | GI50 (UACC-62): > 100 µM (inactive)

COc1cc(-c2cc(O)c(-c3ccc4ccccc4n3)c(O)n2)cc(OC)c1OC
GI50 (T47D): 97.5 µM (inactive) | GI50 (HOP-62): 53.3 µM (inactive) | GI50 (NCI-H226): > 48.3 µM (inactive) | GI50 (SR): 1.77 µM (inactive) | GI50 (HL-60): 8.55 µM (inactive) | GI50 (SF-295): 21.9 µM (inactive) | GI50 (Malme-3M): 13.1 µM (inactive) | GI50 (PC-3): 44.3 µM (inactive) | GI50 (HCT-15): 29 µM | GI50 (EKVX): > 52 µM (inactive) | GI50 (SNB-19): > 75.7 µM (inactive) | GI50 (SF-539): 30.7 µM (inactive) | GI50 (SK-MEL-28): 42.1 µM (inactive) | GI50 (SK-MEL-2): 32.2 µM (inactive) | GI50 (SK-OV-3): 39.6 µM (inactive) | GI50 (HCT-116): 19 µM (inactive) | GI50 (HOP-92): 26.2 µM (inactive) | GI50 (HT-29): 18.6 µM (inactive) | GI50 (TK-10): 69.7 µM (inactive) | GI50 (SN12C): > 56.6 µM (inactive) | GI50 (KM12): 14.8 µM (inactive) | GI50 (786-0): 34.4 µM (inactive) | GI50 (COLO 205): 38.7 µM (inactive) | GI50 (MOLT-4): 6.97 µM (inactive) | GI50 (BT-549): 80.4 µM (inactive) | GI50 (M14): 25.4 µM (inactive) | GI50 (DU-145): 44.9 µM (inactive) | GI50 (A498): > 61 µM (inactive) | GI50 (RPMI-8226): > 50 µM (inactive) | GI50 (NCI/ADR-RES): 26.9 µM (inactive) | GI50 (U-251): 22.9 µM (inactive) | GI50 (SNB-75): 17.9 µM (inactive) | GI50 (ACHN): > 62.7 µM (inactive) | GI50 (A549): 53.7 µM (inactive) | GI50 (K562): 3.31 µM (inactive) | GI50 (RXF 393): 39.9 µM (inactive) | GI50 (OVCAR-3): 12.4 µM (inactive) | GI50 (NCI-H522): 13.2 µM (inactive) | GI50 (MDA-N): 3.56 µM (inactive) | GI50 (MDA-MB-231): 36.6 µM (inactive) | GI50 (OVCAR-4): > 38.5 µM (inactive) | GI50 (CAKI-1): > 44 µM (inactive) | GI50 (MDA-MB-435): 2.07 µM (inactive) | GI50 (SF-268): 43 µM (inactive) | GI50 (MCF7): 39.1 µM (inactive) | GI50 (Hs-578T): 57.4 µM (inactive) | GI50 (NCI-H23): 46.2 µM (inactive) | GI50 (NCI-H460): 31 µM (inactive) | GI50 (CCRF-CEM): 10.3 µM (inactive) | GI50 (UO-31): 68.7 µM (inactive) | GI50 (IGROV-1): 43.5 µM (inactive) | GI50 (LOX IMVI): 19.1 µM (inactive) | GI50 (SK-MEL-5): 15.1 µM (inactive) | GI50 (HCC 2998): > 60.3 µM (inactive) | GI50 (OVCAR-8): > 32.4 µM (inactive) | GI50 (OVCAR-5): > 59.6 µM (inactive) | GI50 (SW-620): 19.1 µM (inactive) | GI50 (UACC-257): 54.3 µM (inactive) | GI50 (UACC-62): 15.2 µM (inactive)
